The text below walks through data of the NIST ThermoML archive (doi:10.1021/je034227w).

Numbers after ± are expanded uncertainties.

Usually mass density stands for the mass of a sample divided by its volume.

The conditions of this data set: Liquid; for mass density: 298.15 K, 101.33 kPa.

With `CCO` [ethanol], the mass density was found to be 785.1 ± 5 kg/m3 and the Normal boiling temperature stood at 78.31 ± 0.03 °C.

Take `CO` [methanol]: the mass density is reported as 786.5 ± 5 kg/m3 and the Normal boiling temperature was 64.52 ± 0.03 °C.
